Tested on: human epidermoid keratinocytes in culture (HaCaT) exposed to UV radiation
Test: Evaluation of the antioxidant potential: DCFH-DA test
Assay type: cell-based
Settings: HaCaT keratinocytes pretreated 24 hours; DCFH-DA 20 μM 30 minutes; 2 J/cm^2 UVA; compound used as 30% solution in water/dipropylene glycol (70/30); preliminary tests
Protocol: Evaluation of the Antioxidant Potential: DCFH-DA Test
The sodium salt of 3-hydroxy-2-pentylcyclopentane-acetic acid is used as a 30% solution in a water/dipropylene glycol mixture (70/30).
In a model of human epidermoid keratinocytes in culture (HaCaT) exposed to UV radiation, the global oxidative stress effect of the said compound after oxidation of a fluorescent probe (DCFH-DA) is measured.
The use of DCFH-DA as a marker of intracellular global oxidative stress is based on its physicochemical properties. It is a nonionic apolar molecule that is capable of diffusing across cell membranes. Once inside the cell, DCFH-DA is hydrolysed by intracellular esterases to a non-fluorescent compound: DCFH or 2,7-dichlorofluorescine. In the presence of activated oxygen species (H2O2; OH°), DCFH is rapidly oxidized to a highly fluorescent compound: DCF or 2,7-dichlorofluorescein.
HaCaT keratinocytes pretreated with the active agents for 24 hours are rinsed with PBS+ and incubated in the presence of DCFH-DA [20 μM] for 30 minutes at 37° C. in the dark.
After removal of the probe, the cells are exposed to 2 J/cm^2 of UVA (WG335 filter) in the presence of 1 ml/well of PBS+. The DCF fluorescence is evaluated immediately after the UVA exposure, by spectrofluorimetry (excitation 480 nm; emission 530 nm).

CCCCCC1C(O)CCC1CC(=O)[O-].[Na+] (stereo not shown) [sodium salt of 3-hydroxy-2-pentylcyclopentaneacetic acid]
antioxidant potential / protection against oxidative stress (DCF fluorescence): antioxidant potential with protection against oxidative stress

Source: patent publication US8679513B2, “Cosmetic use of a jasmonic acid derivative for treating the hair and the scalp” (L'Oreal, priority 2009, dated 2014)
